Test results as given in patent US11230526B1, “Cylcoalkenyl derivatives useful as agonists of the GPR120 and/or GPR40 receptors” (Janssen Pharmaceutica NV, priority 2018, dated 2022).
“And” between values parts separate entries of the source, which are not always exact repeats. Equal values may be shown once.

What was measured:
Format in all cases: cell-based
Human GPR120 short form [1] = target: T1, Human GPR120 short form (Homo sapiens, UniProt Q5NUL3); test: Human GPR120 calcium flux assay, Procedure Calcium A (2500 cells/well)
T1 construct: expressed in transfected cells
T1 sequence (Q5NUL3 1-361): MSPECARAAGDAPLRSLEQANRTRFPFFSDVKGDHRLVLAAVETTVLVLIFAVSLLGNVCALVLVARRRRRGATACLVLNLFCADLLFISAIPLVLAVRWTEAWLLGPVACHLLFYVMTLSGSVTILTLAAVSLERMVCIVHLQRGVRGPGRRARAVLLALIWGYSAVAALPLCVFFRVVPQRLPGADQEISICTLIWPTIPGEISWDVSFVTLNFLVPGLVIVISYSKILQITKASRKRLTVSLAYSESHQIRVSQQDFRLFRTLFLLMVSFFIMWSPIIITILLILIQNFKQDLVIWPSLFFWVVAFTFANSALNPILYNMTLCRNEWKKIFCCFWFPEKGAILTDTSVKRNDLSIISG
Source text: Human GPR120 in Calcium Flux Assay
This in vitro assay serves to assess test compound agonist activity against the short splice variant (SVS with Accession number NM_001195755.1 confirmed by sequencing data) of the GPR120 receptor. The Human Short splice variant #2 (NM_001195755.1) is missing an in-frame coding exon compared to variant 1 (the Human Long splice variant NM_181745.3), resulting in a shorter isoform (GPR120-S) lacking a 16 aa protein segment compared to isoform GPR120-L. The assay platform utilizes HEK-293 cells stably transfected to express the Human GPR120 short form. These cells are first loaded with the Ca^+2 sensitive dye, Fluo-4 NW. Upon stimulation, intracellular released Ca^+2 can bind to the dye and alter its fluorescence intensity. This increase in fluorescence signal, and thus the flux in intracellular [Ca^2+], is detected and quantitated by fluorescence imaging using a FLIPR reader. The effect of the agonist is measured as a function of concentration and used to calculate an EC50 based upon a response curve.
In this procedure 2500 cells/well were employed.
A Human GPR120 clone (Genbank accession number NM_001195755.1) was placed into the pcDNA3.1 mammalian expression vector carrying the neomycin resistance gene. A stable mammalian cell was generated by placing the above clone into a HEK293 background. Clonal cells responding to long chain fatty acids had expression levels of GPR120 confirmed by RT-qPCR. Human HEK-GPR120 cells were cultured in Dulbecco's Modified Eagle's Medium (DMEM)/F12 medium supplemented with 10% fetal bovine serum (FBS), 1% L-Glutamine and 1% penicillin/streptomycin and 0.5 mg/ml G-418. Cells were split 2 times a week to keep the cells in the log-phase growth.
In preparation for the assay, HEK cells stably transfected with Human GPR120 (2.5K cells per well in 25 uL growth medium) were seeded into 384-well plates and then incubated overnight (37° C., 5% CO2). The next day, the media was changed to 20 μL assay buffer and the cell starved for 1 h at 37° C. The dye loading solution (2× dye) was prepared using 10 mL assay buffer, 100 μL of 250 mM probenecid, 1 bottle of Component A, and 20 μl of dye in DMSO. Twenty μL of the 2× dye loading buffer was then added to each well. The plates were incubated at 37° C. for 30 min, then at room temperature for an additional 15 minutes, before performing the assay on FLIPR.
The assay was performed on a FLIPR plate reader using the following parameters. Baseline was read for 10 seconds at 1 sec intervals. The program was set to transfer 10 μL of ligand from compound plate to cell plate after baseline reading. Aspiration was executed at: 10 μL/sec speed, 4.6 μL height, Dispensing was executed at: 30 μL/sec speed, 45 μL height. After compound addition, each well was read for 300 sec, with measurements collected at 1 sec intervals.
The kinetic data from the FLIPR was based upon a 5 minute window for data collection. The fluorescence of each sample well was used for individual calculations of a normalized RFU value, which was defined as maximum response minus the minimum response. The normalized fluorescence reading (RFU) was calculated as follows: RFU=Fmax−Fmin
The Fitting Equation was: Y=Bottom+(Top-Bottom)/(1+10^((Log EC50−X)*HillSlope)), where X is the log of the concentration and Y is the response.

Human GPR120 short form [2] = target: T1, Human GPR120 short form; test: Human GPR120 calcium flux assay, Procedure Calcium B (4200 cells/well)
Procedure, shortened: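 HEK293 cells stably expressing human GPR120 (NM_001195755.1), 4200 cells/well, starved 1 h and loaded with Fluo-4 NW plus probenecid. Ligand-evoked calcium flux read on FLIPR for 300 s after a 10 s baseline. RFU = Fmax−Fmin; EC50 from four-parameter concentration-response fit.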

[3] = target: T2, long form of human GPR120 (Homo sapiens, UniProt Q5NUL3); test: Human GPR120 DiscoveRx PathHunter Beta-Arrestin assay, Procedure β-arrestin A
T2 construct: host or cells: PathHunter CHO-K1 GPR120 β-Arrestin Cell Line
Procedure, shortened: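 PathHunter CHO-K1 cells expressing long-form human GPR120 (3000/well) were seeded overnight. They were then preincubated 60 min in HBSS with 20 mM HEPES and 0.1% BSA, pH 7.4, and exposed to compound for 90 min at 37 °C. β-Arrestin recruitment was read as β-gal complementation luminescence. EC50 came from % activity versus positive control, Hill slope fixed at 1.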

human GPR40 = target: T3, human GPR40 (Homo sapiens, UniProt O14842); test: GPR40 calcium flux assay, human GPR40; details: HEK293 cells stably expressing GPR40; table does not say human or rat
T3 construct: expressed in transfected cells
Procedure, shortened: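 Cells preincubated 1 h at 37° C. in HBSS, 20 mM HEPES, 0.1% BSA, then Fluo 8 calcium dye 30 min at 37° C. and 15 min at room temperature.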

T2 sequence (Q5NUL3 1-377 isoform Q5NUL3-1): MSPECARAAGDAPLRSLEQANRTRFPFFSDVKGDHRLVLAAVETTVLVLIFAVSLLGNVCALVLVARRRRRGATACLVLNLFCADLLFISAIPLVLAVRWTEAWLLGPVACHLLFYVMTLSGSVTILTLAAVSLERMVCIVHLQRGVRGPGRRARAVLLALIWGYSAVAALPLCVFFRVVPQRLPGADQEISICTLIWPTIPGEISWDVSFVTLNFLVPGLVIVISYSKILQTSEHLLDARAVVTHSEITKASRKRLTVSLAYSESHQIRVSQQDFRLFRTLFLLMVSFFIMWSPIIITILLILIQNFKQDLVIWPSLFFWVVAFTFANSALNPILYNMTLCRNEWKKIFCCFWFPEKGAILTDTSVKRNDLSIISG
T2 sequence (P32121 whole entry partner): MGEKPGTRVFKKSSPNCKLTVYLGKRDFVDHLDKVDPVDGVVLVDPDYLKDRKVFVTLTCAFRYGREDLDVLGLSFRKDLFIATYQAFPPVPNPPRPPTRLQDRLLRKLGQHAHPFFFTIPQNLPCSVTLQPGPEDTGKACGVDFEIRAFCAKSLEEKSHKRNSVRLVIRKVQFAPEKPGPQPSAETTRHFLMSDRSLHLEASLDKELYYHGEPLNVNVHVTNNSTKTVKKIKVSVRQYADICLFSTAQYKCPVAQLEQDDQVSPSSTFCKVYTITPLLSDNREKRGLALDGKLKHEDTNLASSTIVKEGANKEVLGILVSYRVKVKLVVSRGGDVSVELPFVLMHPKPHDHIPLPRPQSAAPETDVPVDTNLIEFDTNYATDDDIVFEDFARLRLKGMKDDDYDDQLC
T3 sequence (O14842 whole entry): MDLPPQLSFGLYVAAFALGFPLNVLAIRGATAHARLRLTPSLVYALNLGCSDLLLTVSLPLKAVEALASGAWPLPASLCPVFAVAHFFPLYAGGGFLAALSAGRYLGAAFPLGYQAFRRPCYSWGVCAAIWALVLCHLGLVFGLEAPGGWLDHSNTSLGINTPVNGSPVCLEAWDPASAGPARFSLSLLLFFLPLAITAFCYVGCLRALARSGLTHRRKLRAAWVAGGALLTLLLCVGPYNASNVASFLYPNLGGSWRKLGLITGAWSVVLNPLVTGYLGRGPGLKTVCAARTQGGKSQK

With `CC(=O)Nc1ccc(C2=C(COc3ccc(CCC(=O)O)c(C)c3C)CCC2)cc1` [Compound 51, 3-[4-[[2-(4-acetamidophenyl)cyclopenten-1-yl]methoxy]-2,3-dimethyl-phenyl]Propanoic Acid] the EC50 (Human GPR120 short form [1]) was > 20000 nM.
An EC50 (Human GPR120 short form [1]) of 4440 nM and an EC50 (Human GPR120 short form [2]) of 1450 nM were found for `Cc1c(CCC(=O)O)ccc(OCC2=C(c3ccc(OC(F)(F)F)cc3)CCCC2)c1C` [Compound 466, 3-[2,3-dimethyl-4-[[2-[4-(trifluoromethoxy)phenyl]cyclohexen-1-yl]methoxy]phenyl]Propanoic Acid] in this work.
With `Cc1c(CCC(=O)O)ccc(OCC2=C(c3ccc([S+](C)[O-])cc3)CCC2)c1C` (stereo not shown) [Compound 120, 3-[2,3-dimethyl-4-[[2-(4-methylsulfinylphenyl)cyclopenten-1-yl]methoxy]phenyl]Propanoic Acid] the EC50 (Human GPR120 short form [1]) was > 5000 nM.
An EC50 [3] of 208 nM, an EC50 (Human GPR120 short form [2]) of 207 nM and an EC50 (human GPR40) of 3030 nM were found for `O=C(O)CCc1ccc(OCC2=C(c3ccc(F)cc3)CCC2)cc1` [Compound 43, 3-[4-[[2-(4-fluorophenyl)cyclopenten-1-yl]methoxy]phenyl]Propanoic Acid] in this work.
An EC50 [3] of 643 nM, an EC50 (Human GPR120 short form [2]) of 444 nM and an EC50 (human GPR40) of 4500 nM were found for `Cc1cc(CCC(=O)O)ccc1OCC1=C(c2ccc(C#N)s2)CCC(F)(F)C1` [Compound 573, 3-[4-[[2-(5-cyano-2-thienyl)-5,5-difluoro-cyclohexen-1-yl]methoxy]-3-methyl-phenyl]Propanoic Acid] in this work.
In the case of `Cc1ccc(C2=C(COc3ccc(CCC(=O)O)cc3C)CC(F)(F)CC2)cc1F` [Compound 530, 3-[4-[[5,5-difluoro-2-(3-fluoro-4-methyl-phenyl)cyclohexen-1-yl]methoxy]-3-methyl-phenyl]Propanoic Acid], the EC50 [3] is reported as 73 nM, the EC50 (Human GPR120 short form [2]) is reported as 68 nM and the EC50 (human GPR40) is reported as > 5000 nM.
With `Cc1cc(CCC(=O)O)ccc1OCC1=C(c2ccc(F)c(F)c2)CC(F)(F)C1` [Compound 179, 3-[4-[[2-(3,4-difluorophenyl)-4,4-difluoro-cyclopenten-1-yl]methoxy]-3-methyl-phenyl]Propanoic Acid] the EC50 [3] was 289 nM, the EC50 (Human GPR120 short form [2]) was 31 nM and the EC50 (human GPR40) was > 5000 nM.
An EC50 [3] of 727 nM, an EC50 (Human GPR120 short form [2]) of 525 nM and an EC50 (human GPR40) of 2340 nM were found for `Cc1ncc(C2=C(COc3ccc(CCC(=O)O)c(C)c3C)CC(F)(F)CC2)s1` [Compound 553, 3-[4-[[5,5-difluoro-2-(2-methylthiazol-5-yl)cyclohexen-1-yl]methoxy]-2,3-dimethyl-phenyl]Propanoic Acid] in this work.
With `Cc1c(CCC(=O)O)ccc(OCC2=C(c3ccc(C#N)s3)CCC(F)(F)C2)c1C` [Compound 558, 3-[4-[[2-(5-cyano-2-thienyl)-5,5-difluoro-cyclohexen-1-yl]methoxy]-2,3-dimethyl-phenyl]Propanoic Acid] the EC50 [3] was 1310 nM, the EC50 (Human GPR120 short form [2]) was 381 nM and the EC50 (human GPR40) was > 5000 nM.
With `O=C(O)CCc1ccc(OCC2=C(c3ccc(Cl)cc3)CCC2)cc1C(F)(F)F` [Compound 39, 3-[4-[[2-(4-chlorophenyl)cyclopenten-1-yl]methoxy]-2-(trifluoromethyl)phenyl]Propanoic Acid] the EC50 [3] was 491 nM, the EC50 (Human GPR120 short form [2]) was 215 nM and the EC50 (human GPR40) was 131 nM and 182 nM.
For `O=C(O)CCc1ccc(OCC2=C(c3ccc(F)cc3)CC(F)(F)C2)c(Cl)c1` [Compound 203, 3-[3-chloro-4-[[4,4-difluoro-2-(4-fluorophenyl)cyclopenten-1-yl]methoxy]phenyl]Propanoic Acid], the EC50 [3] was 56 nM, the EC50 (Human GPR120 short form [2]) was 80 nM and the EC50 (human GPR40) was > 5000 nM.
For `Cc1c(CCC(=O)O)ccc(OCC2=C(c3ccccc3)CCC(F)(F)C2)c1C` [Compound 537, 3-[4-[(5,5-difluoro-2-phenyl-cyclohexen-1-yl)methoxy]-2,3-dimethyl-phenyl]Propanoic Acid], the EC50 [3] was 161 nM, the EC50 (Human GPR120 short form [2]) was 83 nM and the EC50 (human GPR40) was > 5000 nM.
For `Cc1c(CCC(=O)O)ccc(OCC2=C(c3ccc(F)cc3F)CC(F)(F)C2)c1C` [Compound 173, 3-[4-[[2-(2,4-difluorophenyl)-4,4-difluoro-cyclopenten-1-yl]methoxy]-2,3-dimethyl-phenyl]Propanoic Acid], the EC50 [3] was 40 nM, the EC50 (Human GPR120 short form [2]) was 49 nM and the EC50 (human GPR40) was > 5000 nM.
An EC50 [3] of 596 nM, an EC50 (Human GPR120 short form [2]) of 137 nM and an EC50 (human GPR40) of 3320 nM were found for `COC1CC(COc2c(F)cc(CCC(=O)O)cc2F)=C(c2ccc(Cl)cc2)C1` (stereo not shown) [Compound 187, 3-[4-[[2-(4-chlorophenyl)-4-methoxy-cyclopenten-1-yl]methoxy]-3,5-difluoro-phenyl]Propanoic Acid] in this work.
For `CCC1CCC(c2ccc(Cl)cc2)=C(COc2ccc(CCC(=O)O)c(C)c2C)C1` (stereo not shown) [Compound 502, 3-[4-[[2-(4-chlorophenyl)-5-ethyl-cyclohexen-1-yl]methoxy]-2,3-dimethyl-phenyl]Propanoic Acid], the EC50 [3] was 192 nM, the EC50 (Human GPR120 short form [2]) was 147 nM and the EC50 (human GPR40) was > 5000 nM.
`Cc1ccc(C2=C(COc3ccc(CCC(=O)O)c(C)c3C)CC(F)(F)CC2)cc1F` [Compound 529, 3-[4-[[5,5-difluoro-2-(3-fluoro-4-methyl-phenyl)cyclohexen-1-yl]methoxy]-2,3-dimethyl-phenyl]Propanoic Acid] was tested, and the EC50 [3] was 136 nM, the EC50 (Human GPR120 short form [2]) was 156 nM and the EC50 (human GPR40) was > 5000 nM.
An EC50 [3] of 981 nM, an EC50 (Human GPR120 short form [2]) of 875 nM and an EC50 (human GPR40) of 1780 nM were found for `O=C(O)CCc1ccc(OCC2=C(c3ccc(Cl)cc3)CCC2)cc1OC(F)(F)F` [Compound 96, 3-[4-[[2-(4-chlorophenyl)cyclopenten-1-yl]methoxy]-2-(trifluoromethoxy)phenyl]Propanoic Acid] in this work.
`Cc1cc(CCC(=O)O)ccc1OCC1=C(c2cccc(F)c2)CC(F)(F)C1` [Compound 191, 3-[4-[[4,4-difluoro-2-(3-fluorophenyl)cyclopenten-1-yl]methoxy]-3-methyl-phenyl]Propanoic Acid] was tested, and the EC50 [3] was 259 nM, the EC50 (Human GPR120 short form [2]) was 27 nM and the EC50 (human GPR40) was > 5000 nM.
In the case of `Cc1cc(CCC(=O)O)ccc1OCC1=C(c2ccc(F)cc2)CCC(F)(F)C1` [Compound 498, 3-[4-[[5,5-difluoro-2-(4-fluorophenyl)cyclohexen-1-yl]methoxy]-3-methyl-phenyl]Propanoic Acid], the EC50 [3] is reported as 219 nM, the EC50 (Human GPR120 short form [2]) is reported as 96 nM and the EC50 (human GPR40) is reported as > 5000 nM.
With `Cc1c(CCC(=O)O)ccc(OCC2=C(c3ccco3)CCC2)c1C` [Compound 210, 3-[4-[[2-(2-furyl)cyclopenten-1-yl]methoxy]-2,3-dimethyl-phenyl]Propanoic Acid] the EC50 [3] was 110 nM, the EC50 (Human GPR120 short form [2]) was 137 nM and the EC50 (human GPR40) was > 5000 nM.
For `Cc1cc(CCC(=O)O)ccc1OCC1=C(c2ccc(F)cc2F)CC(F)(F)C1` [Compound 182, 3-[4-[[2-(2,4-difluorophenyl)-4,4-difluoro-cyclopenten-1-yl]methoxy]-3-methyl-phenyl]Propanoic Acid], the EC50 [3] was 104 nM, the EC50 (Human GPR120 short form [2]) was 32 nM and the EC50 (human GPR40) was > 5000 nM.
